# Measured values: US20120184545A1, “HEART-SLOWING DRUG CONTAINING SHORT-ACTING BETA-BLOCKER AS TEH ACTIVE INGREDIENT” (ONO PHARMACEUTICAL CO., LTD., priority 2003, published 2012)
# Where a name gives a salt, the structure may show the parent alone.
# Experiments:
# [1] = cited from earlier work
# [2] = system: angina pectoris patients; assay: efficacy and safety of landiolol hydrochloride in coronary angiography using MSCT; format: in vivo, human
# Description: Evaluation of efficacy and safety of landiolol hydrochloride to the coronary angiography ability using MSCT:
# In the imaging of MSCT, LightSpeed Ultra 16 (16-slices MSCT, manufactured by GE medical systems) was used.
# As a Workstation, Advantage Workstation AW 4.2 (manufactured by GE Medical Systems) was used.
# As an imaging analysis soft, CardIQ Analysis II manufactured by GE Medical Systems was used.
# As contrast media, iomeprol 350 mgI/ml (brand name: Iomeron 350, manufactured by Eisai Co., Ltd., was used.
# To four angina pectoris patients, was intravenously administered landiolol hydrochloride swiftly over a period of 1 minute (0.063 mg/kg/minute), followed by a sustained intravenous administration over a period of 10 minutes (0.02 mg/kg/minute).
# The contrast media were administered 10 minutes after confirming that the heart rate was slowed down. The imaging timing was determined by a test injection method using contrast media. As a result of swift administration of iomeprol (10 ml) and saline (20 ml) sequentially, it took approximately average of 16 seconds for iomeprol to reach heart. Afterwards, iomeprol (70 ml) and saline (20 ml) were swiftly administered sequentially and in time with the timing when iomeprol reached heart, MSCT imaging was started.
# Three-dimensional overall figures of coronary artery were grasped with (A), and then followed by evaluation of the lesion site with (B) and (C), optionally followed by addition of an orthogonal cross-section imaging of a coronary artery for further confirmation.
# To the above four angina pectosis patients, landiolol hydrochloride was administered. […] The inhibition rate (%) was calculated by {(post-value/(pre-value)×100−100}.
structure (smiles),measurement,setting,value
"COC(=O)CCc1ccc(OCC(O)CNC(C)C)cc1 (centres unmarked) [esmolol hydrochloride, Methyl 3-[4-[2-hydroxy-3-(isopropylamino)propoxy]phenyl]propionic acid hydrochloride]",half life in blood,[1],approximately 9 minutes
"CC1(C)OC[C@@H](COC(=O)CCc2ccc(OC[C@@H](O)CNCCNC(=O)N3CCOCC3)cc2)O1 [landiolol hydrochloride, (−)-[(S)-2,2-dimethyl-1,3-dioxolan-4-yl]methyl-3-[4-[(S)-2-hydroxy-3-(2-morpholinocarbonylamino)ethylamino]propoxy]phenylpropionic acid hydrochloride]",image quality of coronary angiography by MSCT,"[2]; after administration of landiolol hydrochloride, iomeprol contrast medium, 16-slices MSCT",extremely sharp
same,lowering of the blood pressure (safety),"[2]; angina pectoris patients, after administration",no excessive lowering of the blood pressure was found
same,Heart rate after administration,"[2]; four angina pectoris patients (n = 4), i.v. 0.063 mg/kg/minute for 1 minute, then 0.02 mg/kg/minute for 10 minutes, before administration 61.0",54.8 min⁻¹
same,Systolic blood pressure after administration,"[2]; four angina pectoris patients (n = 4), i.v. 0.063 mg/kg/minute for 1 minute, then 0.02 mg/kg/minute for 10 minutes, before administration 173.3",161.8 mmHg
